Laboratory results taken from US11304962B2, “Methods of reducing risk of preterm birth” (COVIS Pharma GmbH, priority 2015, dated 2022).
Converted amounts (≈) assume the structure as drawn. Like-named read-outs stand apart in the source and are kept apart here.

Legend:
[1] = Single-dose crossover pharmacokinetic study of 17-HPC, SQ (upper anterior thigh) vs IM (gluteus maximus) injection; format: in vivo, human; conditions: for AUC(0-t) / Cmax: female, human, single dose, healthy postmenopausal women, plasma; for AUC(0-t): read-out: AUC0-t, LS Geometric Mean; for Cmax: read-out: Cmax, LS Geometric Mean
Procedure: An open-label, randomized, single-dose, two-period, two-treatment, four-sequence, crossover study was conducted to compare equal 250 mg doses of 17-HPC injections, 250 mg/ml given as either a 1 mL deep IM injection to the upper outer quadrant of the gluteus maximus or a 1 mL SQ injection to the upper anterior thigh. The study was conducted with 12 healthy, non-tobacco using postmenopausal adult women. The subjects were given the SQ injection in one study period and the IM injection in the other study period according to the four-sequence randomization schedule. Blood was taken at 4, 24, 48, 72, 96, 120 and 144-hours post-treatment, and plasma concentrations of 17-HPC were measured. The interval between doses was 21 days. The analytical data were used to estimate the pharmacokinetic parameters AUC0-t, Cmax, and Tmax.

[2] = Solubility of HPC in benzyl benzoate/castor oil mixtures; format: physicochemical; conditions: for solubility: benzyl benzoate/castor oil mixture, oil or lipid, read-out: mg HPC/mL solution (solubility)
From the text: Weight percent of BB is relative to the castor oil.

[3] = Randomized bioavailability study of 17-HPC, SC injection in triceps area (1.1 or 1.2 mL) vs IM injection (1.0 mL); format: in vivo, human; conditions: for AUC(0-t) / AUC(0-inf) / Cmax / Tmax / half-life: female, human, plasma; for Cmax: healthy postmenopausal women, read-out: Cmax, geometric mean (geometric CV); for Tmax: read-out: Tmax, median; for half-life: read-out: t½, geometric mean (geometric CV) (converted)
Procedure: A randomized study is conducted to compare the bioavailability and injection site pain when 17-HPC, 250 mg/mL, is administered as a single 1.0 mL IM injection (250 mg) in the gluteus maximus or a 1.1 (275 mg) or 1.2 mL (300 mg) SQ injection in the triceps area of healthy post-menopausal women. Patients are randomized into two groups by route of administration. Group A receives a 1.0 mL IM injection of 17-HPC into the upper outer quadrant of the gluteus maximus. Group B receives a 1.1 or 1.2 mL SC injection into the upper outer thigh or arm (triceps area). Patient reported outcomes of injection site pain are collected to assess the safety and usability of SQ administration, either by medical staff or for self-administration of 17-HPC.
All patients have blood drawn prior to administration of 17-HPC, and at 2, 4, 8, 12, 18 and 24 hours post dose, and again at approximately the same time as dosing on days 2-7, 14, 21, and 28.

[4] = 250 mg SQ thigh vs 250 mg IM gluteus maximus
[5] = subcutaneous, SQ injection 250 mg (1 mL) upper anterior thigh
[6] = IM injection 250 mg (1 mL) gluteus maximus
[7] = 25° C., 63.33 wt % BB relative to castor oil
[8] = IM 1.0 mL (250 mg) gluteus maximus
[9] = SC 1.1 mL (275 mg) triceps area
[10] = SC 1.2 mL (300 mg) triceps area

Q: Which results are given for `CCCCCC(=O)O[C@]1(C(C)=O)CC[C@H]2[C@@H]3CCC4=CC(=O)CC[C@]4(C)[C@H]3CC[C@@]21C` [17-HPC, 17-alpha-hydroxyprogesterone caproate]?
A: AUC0-t LSGM Ratio A (SQ) vs B (IM) [1, 4]: 73.85%; Cmax LSGM Ratio A (SQ) vs B (IM) [1, 4]: 68.39%; AUC(0-t) [1, 5]: 458 ng·h/mL; Cmax [1, 5]: 4.2 ng/mL; AUC(0-t) [1, 6]: 621 ng·h/mL; Cmax [1, 6]: 6.14 ng/mL; Avg. HPC wt % (solubility) ([2]; 5° C., 53.01 wt % BB relative to castor oil): 18.60 wt %; Avg. HPC wt % (solubility) ([2]; 5° C., 63.33 wt % BB relative to castor oil): 20.31 wt %; Avg. HPC wt % (solubility) ([2]; 5° C., 69.43 wt % BB relative to castor oil): 21.62 wt %; Avg. HPC wt % (solubility) ([2]; 5° C., 75.59 wt % BB relative to castor oil): 23.00 wt %; Avg. HPC wt % (solubility) ([2]; 5° C., 81.79 wt % BB relative to castor oil): 24.65 wt %; Avg. HPC wt % (solubility) ([2]; 5° C., 87.91 wt % BB relative to castor oil): 25.22 wt %; Avg. HPC wt % (solubility) ([2]; 15° C., 53.01 wt % BB relative to castor oil): 20.49 wt %; Avg. HPC wt % (solubility) ([2]; 15° C., 63.33 wt % BB relative to castor oil): 22.96 wt %; Avg. HPC wt % (solubility) ([2]; 15° C., 69.43 wt % BB relative to castor oil): 24.28 wt %; Avg. HPC wt % (solubility) ([2]; 15° C., 75.59 wt % BB relative to castor oil): 25.97 wt %; Avg. HPC wt % (solubility) ([2]; 15° C., 81.79 wt % BB relative to castor oil): 27.32 wt %; Avg. HPC wt % (solubility) ([2]; 15° C., 87.91 wt % BB relative to castor oil): 28.30 wt %; Avg. HPC wt % (solubility) ([2]; 25° C., 53.01 wt % BB relative to castor oil): 24.08 wt %; Avg. HPC wt % (solubility) [2, 7]: 27.17 wt %; Avg. HPC wt % (solubility) ([2]; 25° C., 69.43 wt % BB relative to castor oil): 28.76 wt %; Avg. HPC wt % (solubility) ([2]; 25° C., 75.59 wt % BB relative to castor oil): 30.62 wt %; Avg. HPC wt % (solubility) ([2]; 25° C., 81.79 wt % BB relative to castor oil): 31.98 wt %; Avg. HPC wt % (solubility) ([2]; 25° C., 87.91 wt % BB relative to castor oil): 33.26 wt %; solubility data over multiple days ([2]; BB/castor oil with and without benzyl alcohol, 5, 15, 25° C., over 5 days): fairly constant; solubility ([2]; 5 °C, 5° C., 53.01 wt % BB relative to castor oil): 200 mg/mL (≈ 467 mM); solubility ([2]; 5 °C, 5° C., 63.33 wt % BB relative to castor oil): 222 mg/mL (≈ 518 mM); solubility ([2]; 5 °C, 5° C., 69.43 wt % BB relative to castor oil): 238 mg/mL (≈ 555 mM); solubility ([2]; 5 °C, 5° C., 75.59 wt % BB relative to castor oil): 253 mg/mL (≈ 590 mM); solubility ([2]; 5 °C, 5° C., 81.79 wt % BB relative to castor oil): 273 mg/mL (≈ 637 mM); solubility ([2]; 5 °C, 5° C., 87.91 wt % BB relative to castor oil): 284 mg/mL (≈ 663 mM); solubility ([2]; 15 °C, thermodynamic from solid, 15° C., 53.01 wt % BB relative to castor oil): 220 mg/mL (≈ 513 mM); solubility ([2]; 15 °C, thermodynamic from solid, 15° C., 63.33 wt % BB relative to castor oil): 254 mg/mL (≈ 593 mM); solubility ([2]; 15 °C, thermodynamic from solid, 15° C., 69.43 wt % BB relative to castor oil): 269 mg/mL (≈ 628 mM); solubility ([2]; 15 °C, thermodynamic from solid, 15° C., 75.59 wt % BB relative to castor oil): 289 mg/mL (≈ 674 mM); solubility ([2]; 15 °C, thermodynamic from solid, 15° C., 81.79 wt % BB relative to castor oil): 306 mg/mL (≈ 714 mM); solubility ([2]; 15 °C, thermodynamic from solid, 15° C., 87.91 wt % BB relative to castor oil): 320 mg/mL (≈ 747 mM); solubility ([2]; 25 °C, 25° C., 69.43 wt % BB relative to castor oil): 321 mg/mL (≈ 749 mM); solubility ([2]; 25 °C, 25° C., 75.59 wt % BB relative to castor oil): 347 mg/mL (≈ 810 mM); solubility ([2]; 25 °C, 25° C., 81.79 wt % BB relative to castor oil): 363 mg/mL (≈ 847 mM); solubility ([2]; 25 °C, 25° C., 87.91 wt % BB relative to castor oil): 382 mg/mL (≈ 891 mM); solubility ([2]; 25 °C, thermodynamic from solid, 25° C., 53.01 wt % BB relative to castor oil): 262 mg/mL (≈ 611 mM); solubility [2, 7]: 303 mg/mL (≈ 707 mM); […]z, geometric mean (geometric CV) [3, 8]: 0.0031 (37.3) [11] 1/hr; […]z, geometric mean (geometric CV) [3, 9]: 0.0031 (26.8) [17] 1/hr; […]z, geometric mean (geometric CV) [3, 10]: 0.0031 (38.4) [14] 1/hr; AUC(0-t) Least Squares Geometric Mean Ratio, Estimate ([3]; SC (1.1 mL) vs. IM (1.0 mL)): 103.64%; AUC(inf) Least Squares Geometric Mean Ratio, Estimate ([3]; SC (1.1 mL) vs. IM (1.0 mL)): 100.71%; Cmax Least Squares Geometric Mean Ratio, Estimate ([3]; SC (1.1 mL) vs. IM (1.0 mL)): 123.42%; AUC(0-t) Least Squares Geometric Mean Ratio, Estimate ([3]; SC (1.1 mL) vs. SC (1.2 mL)): 94.40%; AUC(inf) Least Squares Geometric Mean Ratio, Estimate ([3]; SC (1.1 mL) vs. SC (1.2 mL)): 91.63%; Cmax Least Squares Geometric Mean Ratio, Estimate ([3]; SC (1.1 mL) vs. SC (1.2 mL)): 107.50%; AUC(0-t) Least Squares Geometric Mean Ratio, Estimate ([3]; SC (1.2 mL) vs. IM (1.0 mL)): 109.78%; AUC(inf) Least Squares Geometric Mean Ratio, Estimate ([3]; SC (1.2 mL) vs. IM (1.0 mL)): 109.91%; Cmax Least Squares Geometric Mean Ratio, Estimate ([3]; SC (1.2 mL) vs. IM (1.0 mL)): 114.81%; AUC(0-t) ([3]; im, 250 mg, IM 1.0 mL (250 mg) gluteus maximus, read-out: AUC(0-t), Least Squares Geometric Mean): 2680 ng·h/mL; AUC(0-t) ([3]; im, 250 mg, IM 1.0 mL (250 mg) gluteus maximus, read-out: AUC(0-t), geometric mean (geometric CV)): 2680 ng·h/mL; AUC(0-inf) ([3]; im, 250 mg, IM 1.0 mL (250 mg) gluteus maximus, read-out: AUC(inf), Least Squares Geometric Mean): 2910 ng·h/mL; AUC(0-inf) ([3]; im, 250 mg, IM 1.0 mL (250 mg) gluteus maximus, read-out: AUC(inf), geometric mean (geometric CV)): 2910 ng·h/mL; AUC(0-t) ([3]; sc, 275 mg, SC 1.1 mL (275 mg) arm, read-out: AUC(0-t), Least Squares Geometric Mean): 2770 ng·h/mL; AUC(0-inf) ([3]; sc, 275 mg, SC 1.1 mL (275 mg) arm, read-out: AUC(inf), Least Squares Geometric Mean): 2930 ng·h/mL; AUC(0-t) ([3]; sc, 275 mg, SC 1.1 mL (275 mg) triceps area, read-out: AUC(0-t), geometric mean (geometric CV)): 2770 ng·h/mL; AUC(0-inf) ([3]; sc, 275 mg, SC 1.1 mL (275 mg) triceps area, read-out: AUC(inf), geometric mean (geometric CV)): 2940 ng·h/mL; AUC(0-t) ([3]; sc, 300 mg, SC 1.2 mL (300 mg) arm, read-out: AUC(0-t), Least Squares Geometric Mean): 2940 ng·h/mL; AUC(0-inf) ([3]; sc, 300 mg, SC 1.2 mL (300 mg) arm, read-out: AUC(inf), Least Squares Geometric Mean): 3200 ng·h/mL; AUC(0-t) ([3]; sc, 300 mg, SC 1.2 mL (300 mg) triceps area, read-out: AUC(0-t), geometric mean (geometric CV)): 2940 ng·h/mL; AUC(0-inf) ([3]; sc, 300 mg, SC 1.2 mL (300 mg) triceps area, read-out: AUC(inf), geometric mean (geometric CV)): 3200 ng·h/mL; Cmax [3, 8]: 7.08 ng/mL; Tmax [3, 8]: 120 h; half-life [3, 8]: 220 h; Cmax [3, 9]: 8.74 ng/mL; Tmax [3, 9]: 24 h; half-life [3, 9]: 223 h; Cmax [3, 10]: 8.13 ng/mL; Tmax [3, 10]: 48 h; half-life [3, 10]: 225 h
